Source: US11331299B2, “Medicinal use of serrulatane diterpenes” (The University of Sydney, priority 2016, dated 2022)

Key:
BRPF1-1 (h) bromodomain = target: T1, BRPF1-1 (h) bromodomain (Homo sapiens, UniProt P55201); assay: Epigenetic binding assay, Bromodomain; conditions: 10 μM; read-out: % Inhibition of Control Specific Binding
T1 construct: Bromodomain
T1 sequence (P55201 628-732 limits assumed): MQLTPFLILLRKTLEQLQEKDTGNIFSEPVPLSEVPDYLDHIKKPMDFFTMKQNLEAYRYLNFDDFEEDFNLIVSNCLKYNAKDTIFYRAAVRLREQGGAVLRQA

BRD4(1) (h) bromodomain = target: T2, BRD4(1) (h) bromodomain (Homo sapiens, UniProt O60885); assay: Epigenetic binding assay, Bromodomain; conditions: read-out: % Inhibition of Control Specific Binding
T2 construct: Bromodomain

UHRF1 (108-286) (h) = target: T3, UHRF1 (108-286) (h) (Homo sapiens, UniProt Q96T88); assay: Epigenetic binding assay, PHD domain
T3 construct: Eurofins CEREP (France), contract laboratory
T3 sequence (Q96T88 108-286): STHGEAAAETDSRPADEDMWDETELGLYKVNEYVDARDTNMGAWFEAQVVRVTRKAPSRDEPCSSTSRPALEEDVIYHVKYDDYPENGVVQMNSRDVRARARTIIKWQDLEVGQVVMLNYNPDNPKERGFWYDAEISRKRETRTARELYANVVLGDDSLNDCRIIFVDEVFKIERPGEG

LSD1 (h) = LSD1 (h) (Homo sapiens, UniProt O60341); assay: Epigenetic enzyme assay, Demethylases (KDMs); type: biochemical; conditions: read-out: % Inhibition of Control Values
HDAC11 (h) = target: T4, HDAC11 (h) (Homo sapiens, UniProt Q96DB2); assay: Epigenetic enzyme assay, Histone deacetylase (HDACs); type: biochemical; conditions: read-out: % Inhibition of Control Values
T4 sequence (Q96DB2 1-347): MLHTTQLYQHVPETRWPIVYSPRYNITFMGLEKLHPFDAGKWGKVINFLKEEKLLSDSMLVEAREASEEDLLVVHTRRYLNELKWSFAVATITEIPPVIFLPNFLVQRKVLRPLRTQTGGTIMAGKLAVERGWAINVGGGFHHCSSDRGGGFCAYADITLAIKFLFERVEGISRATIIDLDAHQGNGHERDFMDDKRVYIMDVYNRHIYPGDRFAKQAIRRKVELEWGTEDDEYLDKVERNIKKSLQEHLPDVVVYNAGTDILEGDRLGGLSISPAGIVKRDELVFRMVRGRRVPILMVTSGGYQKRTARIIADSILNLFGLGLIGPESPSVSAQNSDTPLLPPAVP

[1] = target: DAPK3/ZIP (substrate histone H3 full length) (Homo sapiens, UniProt O43293); assay: Epigenetic enzyme assay, Kinases; type: biochemical; conditions: read-out: % Inhibition of Control Values
[2] = tested on: 43 cancer cell lines and one normal cell line; assay: In vitro cell viability assay (intracellular ATP, 72 hour); type: cell-based; conditions: 10 μM

DAPK3/ZIP (substrate histone H3 full length), sequence (O43293 whole entry): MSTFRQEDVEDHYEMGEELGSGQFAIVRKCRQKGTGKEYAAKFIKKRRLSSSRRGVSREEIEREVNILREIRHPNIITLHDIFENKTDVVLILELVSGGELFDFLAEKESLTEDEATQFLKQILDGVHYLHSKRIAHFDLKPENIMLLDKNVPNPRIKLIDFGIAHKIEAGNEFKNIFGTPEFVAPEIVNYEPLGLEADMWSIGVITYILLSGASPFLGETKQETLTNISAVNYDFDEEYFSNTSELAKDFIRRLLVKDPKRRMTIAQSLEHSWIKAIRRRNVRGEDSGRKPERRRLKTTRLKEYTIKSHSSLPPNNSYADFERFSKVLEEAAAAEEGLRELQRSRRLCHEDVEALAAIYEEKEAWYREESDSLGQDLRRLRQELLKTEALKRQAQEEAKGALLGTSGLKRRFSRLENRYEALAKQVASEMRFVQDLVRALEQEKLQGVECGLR

CC(C)=CCC[C@H](CO)[C@@H]1CC[C@@H](C)c2c1cc(C)c(O)c2O [Compound 1, 7,8,18-trihydroxyserrulat-14-ene]
inhibition at 10 µM (BRPF1-1 (h) bromodomain): -25%
inhibition at 10 µM (BRD4(1) (h) bromodomain): 49%
% Inhibition of Control Specific Binding (UHRF1 (108-286) (h); 10 μM): good inhibitory activity
inhibition at 10 µM (UHRF1 (108-286) (h); 10 μM, read-out: % Inhibition of Control Specific Binding): 73%
inhibition of binding, 1st (UHRF1 (108-286) (h); 3.0E−05M): 81.5
inhibition of binding, 2nd (UHRF1 (108-286) (h); 3.0E−05M): 83.3
inhibition of binding, Mean (UHRF1 (108-286) (h); 3.0E−05M): 82.4
inhibition of binding, 1st (UHRF1 (108-286) (h); 3.0E−06M): −1.8
inhibition of binding, 2nd (UHRF1 (108-286) (h); 3.0E−06M): −0.1
inhibition of binding, Mean (UHRF1 (108-286) (h); 3.0E−06M): −0.9
inhibition of binding, 1st (UHRF1 (108-286) (h); 3.0E−07M): −12.1
inhibition of binding, 2nd (UHRF1 (108-286) (h); 3.0E−07M): −13.2
inhibition of binding, Mean (UHRF1 (108-286) (h); 3.0E−07M): −12.7
inhibition of binding, 1st (UHRF1 (108-286) (h); 3.0E−08M): −13.3
inhibition of binding, 2nd (UHRF1 (108-286) (h); 3.0E−08M): −12.6
inhibition of binding, Mean (UHRF1 (108-286) (h); 3.0E−08M): −12.9
inhibition of binding, 1st (UHRF1 (108-286) (h); 3.0E−09M): −11.9
inhibition of binding, 2nd (UHRF1 (108-286) (h); 3.0E−09M): −13.1
inhibition of binding, Mean (UHRF1 (108-286) (h); 3.0E−09M): −12.5
IC50 (UHRF1 (108-286) (h); Table 9, inhibition/concentration-response curve): 11 µM
inhibition at 10 µM (LSD1 (h)): 10%
inhibition at 10 µM (HDAC11 (h)): 27%
inhibition at 10 µM [1]: 4%
reduction in cell viability ([2]; 12 cancer cell lines with moderate reduction): −40 to −80%
reduction in cell viability ([2]; cancer cell lines with potent reduction): −80 to −100%
% Cell growth ([2]; 4T1 (Breast Cancer)): 52%
% Cell growth ([2]; A375 (Skin)): −5%
% Cell growth ([2]; A549/ATCC (Non-Small Cell Lung Cancer)): −92%
% Cell growth ([2]; A-431 (Skin)): −89%
% Cell growth ([2]; A-498 (Kidney Cancer)): −43%
% Cell growth ([2]; ACHN (Kidney Cancer)): −41%
% Cell growth ([2]; B16-F0 (Melanoma)): 7%
% Cell growth ([2]; BT474 (Breast Cancer)): −67%
% Cell growth ([2]; CT26.WT (Colon Cancer)): 2%
% Cell growth ([2]; DLD-1 (Colon Cancer)): −65%
% Cell growth ([2]; H33HJ-JA1 (Lymphoma)): −90%
% Cell growth ([2]; HC-4 (Liver Cancer)): −91%
% Cell growth ([2]; HCT-15 (Colon Cancer)): −62%
% Cell growth ([2]; HCT-116 (Colon Cancer)): −74%
% Cell growth ([2]; HT-29 (Colon Cancer)): −66%
% Cell growth ([2]; Hep3B (Liver Cancer)): −84%
% Cell growth ([2]; HepG2 (Liver Cancer)): −23%
% Cell growth ([2]; K-562 (Leukemia)): −55%
% Cell growth ([2]; KATO III (Stomach)): −91%
% Cell growth ([2]; LL/2 (Non-Small Cell Lung Cancer)): −62%
% Cell growth ([2]; LNCaP (Prostrate Cancer)): −86%
% Cell growth ([2]; MCF7 (Breast Cancer)): −71%
% Cell growth ([2]; MCF-7 AdrR (Breast Cancer)): −90%
% Cell growth ([2]; MDA-MB-231 (Breast Cancer)): −92%
% Cell growth ([2]; MDA-MB-468 (Breast Cancer)): −92%
% Cell growth ([2]; MES-SA (Uterus)): −88%
% Cell growth ([2]; MIA PaCa-2 (Pancreas)): 3%
% Cell growth ([2]; MOLT-4 (Leukemia)): −94%
% Cell growth ([2]; MV-411 (Leukemia)): −96%
% Cell growth ([2]; NCI-H460 (Non-Small Cell Lung Cancer)): −37%
% Cell growth ([2]; OVCAR-3 (Ovarian Cancer)): −93%
% Cell growth ([2]; PANC-1 (Pancreas)): 36%
% Cell growth ([2]; PC-3 (Prostrate Cancer)): 70%
% Cell growth ([2]; PC-6 (Non-Small Cell Lung Cancer)): −62%
% Cell growth ([2]; Ramos (Lymphoma)): −92%
% Cell growth ([2]; SK-MEL-5 (Melanoma)): −96%
% Cell growth ([2]; SK-N-MC (Brain)): −87%
% Cell growth ([2]; SK-OV-3 (Ovarian Cancer)): −35%
% Cell growth ([2]; SW-620 (Colon Cancer)): −89%
% Cell growth ([2]; T-47D (Breast Cancer)): 20%
% Cell growth ([2]; U937 (Lymphoma)): −86%
% Cell growth ([2]; U-87 MG (Brain)): 7%
